Measured values reported in patent US11673891B2, “Imidazopyrimidine compounds and uses thereof” (Dana-Farber Cancer Institute, Inc., priority 2017, dated 2023).

Tested on: human adult PBMCs
Experiment: TNF production by ELISA after stimulation of human adult PBMCs
Type: cell-based
Details: adult PBMCs, 33 μM, 18 hours; for TNF (Median): ELISA, unit not given (FIG. 6B/7B legends: TNF concentration in ng/ml); for TNF (Median) / TNF % (Median): N=3-5; for Activity class: class according to TNF % as compared to R848; for TNF % (Median): median percentage TNF production as compared to R848
Experimental: Table 1. Activity of Exemplary Imidazopyrimidine Compounds on Stimulating TNF Production in PBMCs as Compared to Compound R848 Table 1 provides the activity of exemplary compounds on stimulating TNF production in PBMCs as compared to the benchmark compound R848. Specifically, TNF production was measured by ELISA after stimulation of adult PBMCs with compound 037 analog family or the compound R848 at 33 μM for 18 hours. Analogs are ranked top to bottom by median percentage TNF production (TNF %) as compared to R848 (N=3-5). The compounds have been classified in the following categories according to TNF %: high activity—class A: TNF %>15%; medium activity—class B: 1%<TNF %≤15%; low activity—class C: TNF %≤1%.
ELISAs and Multiplex-Analyte Assays. Supernatants derived from human PBMCs and DC stimulations were assayed by ELISA for TNF (ThermoFisher Scientific; Waltham, Mass., USA). Cytokine and chemokine expression profiles (e.g., IFNγ, IL-9, IL-10, IL-12 (p70), IL-13, IL-1β, IL-23, IL-27, IL-28A, IL-33, IL-6, MIP-3α/CCL20, and TNF) in cell culture supernatants were measured using a customized Milliplex® Human Th17 Magnetic Bead Panel according to the manufacturer's instructions (Millipore, Chicago, Ill., USA). Assays were read and analyzed on the Luminex® 100/200™ System and xPOTENT® software (Luminex, Austin, Tex.). A minimum threshold was set at the minimum detectable concentration for each individual assay, defined as three standard deviations above the mean background.
PBMCs were isolated from blood using a Ficoll density gradient. PBMCs either used fresh or were stored at 5×10^7 cells per vial in 1 mL RPMI containing 20% autologous plasma and 10% DMSO at −80° C. until use. Stimulation plates were prepared by transferring 0.66 μl of DMSO-dissolved compounds (10 mM) to each well of a round bottom 96-well plate. PBMCs isolated from human adult donors were resuspended at a concentration of 10^5 cells/200 μl of RPMI supplemented with 10% of platelet-poor plasma. 200 μl of the cell suspension were transferred to each well resulting in a final compound concentration of […]. After about 18 hours of incubation (37° C., 5% CO2), plates were spun down (500×g, room temperature, 5 minutes) and supernatants were harvested for further analysis.

## Cc1ccc(-c2cn3cc(F)cnc3n2)cc1NC(=O)c1ccc(F)cc1C(F)(F)F [FRF-02-167]
  TNF (Median): 1.101
  Activity class: A (high activity—class A: TNF %>15%)
  TNF % (Median): 51.62%

## Cc1cnc2nc(-c3ccc(Cl)c(NC(=O)c4ccccc4C(F)(F)F)c3)cn2c1 [FRF-02-174-2]
  TNF (Median): 0.1455
  Activity class: B (medium activity—class B: 1%<TNF %≤15%)
  TNF % (Median): 13.99%

## Cc1ccc(-c2cn3cc(F)cnc3n2)cc1NC(=O)c1c(F)cccc1C(F)(F)F [FRF-02-175]
  TNF (Median): 0.063
  Activity class: B (medium activity—class B: 1%<TNF %≤15%)
  TNF % (Median): 1.43%

## COc1ccc(C)c(C(=O)Nc2cc(-c3cn4cc(F)cnc4n3)ccc2C)c1 [FRF-02-187]
  TNF (Median): 1.191
  Activity class: A (high activity—class A: TNF %>15%)
  TNF % (Median): 31.32%

## Cc1ccc(-c2cn3cccnc3n2)cc1NC(=O)Cc1ccccc1 [FRF-02-103]
  TNF (Median): 0.008
  Activity class: C (low activity—class C: TNF %≤1%)
  TNF % (Median): 0.18%

## COc1cnc2nc(-c3ccc(C)c(NC(=O)c4ccccc4Cl)c3)cn2c1 [FRF-02-131]
  TNF (Median): 0.008
  Activity class: C (low activity—class C: TNF %≤1%)
  TNF % (Median): 0.18%

## Cc1ccc(-c2cn3cc(F)cnc3n2)cc1NC(=O)c1ccccc1C(F)(F)F [FRF-02-118]
  TNF (Median): 1.8795
  Activity class: A (high activity—class A: TNF %>15%)
  TNF % (Median): 43.53%

## Cc1ccc(-c2cn3cccnc3n2)cc1NC(=O)C(CO)c1ccccc1 (stereo not drawn) [FRF-02-193]
  TNF (Median): 2.997
  Activity class: A (high activity—class A: TNF %>15%)
  TNF % (Median): 91.73%

## CCC(C(=O)Nc1cc(-c2cn3cc(F)cnc3n2)ccc1C)c1ccccc1 (stereo not drawn) [FRF-02-119, N-(5-(6-Fluoroimidazo[1,2-a]pyrimidin-2-yl)-2-methylphenyl)-2-phenylbutanamide]
  TNF (Median): 0.219
  Activity class: B (medium activity—class B: 1%<TNF %≤15%)
  TNF % (Median): 4.35%

## Cc1ccc(-c2cn3cc(F)cnc3n2)cc1NC(=O)c1cc(F)ccc1C(F)(F)F [FRF-02-166]
  TNF (Median): 2.0745
  Activity class: A (high activity—class A: TNF %>15%)
  TNF % (Median): 53.91%

## Cc1ccc(-c2cn3cc(F)cnc3n2)cc1NC(=O)c1ccc(Cl)cc1C(F)(F)F [FRF-02-169]
  TNF (Median): 0.008
  Activity class: C (low activity—class C: TNF %≤1%)
  TNF % (Median): 0.18%

## COc1ccc(C(=O)Nc2cc(-c3cn4cc(F)cnc4n3)ccc2C)c(C)c1 [FRF-02-176]
  TNF (Median): 0.087
  Activity class: B (medium activity—class B: 1%<TNF %≤15%)
  TNF % (Median): 3.81%

## Cc1ccc(-c2cn3cc(F)cnc3n2)cc1NC(=O)C(C)(C)c1ccccc1 [FRF-03-084-1]
  TNF (Median): 0.24
  Activity class: B (medium activity—class B: 1%<TNF %≤15%)
  TNF % (Median): 6.00%

## Cc1ccc(-c2cn3cc(F)cnc3n2)cc1NC(=O)c1ccccc1Cl [FRF-02-115]
  TNF (Median): 0.0625
  Activity class: B (medium activity—class B: 1%<TNF %≤15%)
  TNF % (Median): 2.42%

## COc1ccc(C)c(C(=O)Nc2cc(-c3cn4cccnc4n3)ccc2C)c1 [FRF-02-183]
  TNF (Median): 0.008
  Activity class: C (low activity—class C: TNF %≤1%)
  TNF % (Median): 0.77%

## Cc1ccc(C(=O)Nc2cc(-c3cn4cc(F)cnc4n3)ccc2C)c(C(F)(F)F)c1 [FRF-02-171]
  TNF (Median): 2.1615
  Activity class: A (high activity—class A: TNF %>15%)
  TNF % (Median): 65.93%

## COc1cnc2nc(-c3ccc(C)c(NC(=O)c4ccccc4Br)c3)cn2c1 [FRF-02-132]
  TNF (Median): 0.008
  Activity class: C (low activity—class C: TNF %≤1%)
  TNF % (Median): 0.18%

## Cc1ccc(-c2cn3cc(F)cnc3n2)cc1NC(=O)C(C)c1ccccc1 (stereo not drawn) [FRF-03-081]
  TNF (Median): 0.3195
  Activity class: B (medium activity—class B: 1%<TNF %≤15%)
  TNF % (Median): 7.51%

## Cc1ccc(-c2cn3cccnc3n2)cc1NC(=O)c1ccccc1Cl [Example 37.33]
  TNF (Median): 0.288
  Activity class: A (high activity—class A: TNF %>15%)
  TNF % (Median): 22.94%

## CCC(C(=O)Nc1cc(-c2cn3cc(OC)cnc3n2)ccc1C)c1ccccc1 (stereo not drawn) [FRF-02-137]
  TNF (Median): 0.04
  Activity class: B (medium activity—class B: 1%<TNF %≤15%)
  TNF % (Median): 1.27%

## Cc1ccc(-c2cn3cc(F)cnc3n2)cc1NC(=O)c1ccccc1C [FRF-02-117]
  TNF (Median): 0.138
  Activity class: B (medium activity—class B: 1%<TNF %≤15%)
  TNF % (Median): 3.06%

## Cc1ccc(-c2cn3cccnc3n2)cc1NC(=O)c1ccccc1Br [Example 37.16]
  TNF (Median): 3.5625
  Activity class: A (high activity—class A: TNF %>15%)
  TNF % (Median): 90.17%

## Cc1cnc2nc(-c3ccc(C)c(NC(=O)c4ccccc4Cl)c3)cn2c1 [FRF-02-144-2]
  TNF (Median): 2.5245
  Activity class: A (high activity—class A: TNF %>15%)
  TNF % (Median): 104.32%

## Cc1cnc2nc(-c3ccc(C)c(NC(=O)c4ccccc4C)c3)cn2c1 [FRF-02-162-2]
  TNF (Median): 0.309
  Activity class: B (medium activity—class B: 1%<TNF %≤15%)
  TNF % (Median): 6.34%

## Cc1ccc(-c2cn3cc(F)cnc3n2)cc1NC(=O)C(CO)c1ccccc1 (stereo not drawn) [FRF-02-194]
  TNF (Median): 0.008
  Activity class: C (low activity—class C: TNF %≤1%)
  TNF % (Median): 0.18%

## Cc1ccc(-c2cn3cccnc3n2)cc1NC(=O)c1ccccc1C(F)(F)F [Example 37.37]
  TNF (Median): 3.73
  Activity class: A (high activity—class A: TNF %>15%)
  TNF % (Median): 71.12%

## Cc1ccc(-c2cn3cc(F)cnc3n2)cc1NC(=O)c1ccccc1Br [FRF-02-116]
  TNF (Median): 0.594
  Activity class: B (medium activity—class B: 1%<TNF %≤15%)
  TNF % (Median): 8.48%

## COc1cnc2nc(-c3ccc(C)c(NC(=O)c4ccccc4C)c3)cn2c1 [FRF-02-134]
  TNF (Median): 0.008
  Activity class: C (low activity—class C: TNF %≤1%)
  TNF % (Median): 0.18%

## COc1cnc2nc(-c3ccc(C)c(NC(=O)c4ccccc4C(F)(F)F)c3)cn2c1 [FRF-02-135]
  TNF (Median): 0.0705
  Activity class: B (medium activity—class B: 1%<TNF %≤15%)
  TNF % (Median): 1.60%

## COc1ccc(C(=O)Nc2cc(-c3cn4cccnc4n3)ccc2C)c(C)c1 [FRF-02-182]
  TNF (Median): 0.008
  Activity class: C (low activity—class C: TNF %≤1%)
  TNF % (Median): 0.39%

## Cc1cnc2nc(-c3ccc(C)c(NC(=O)Cc4ccccc4)c3)cn2c1 [FRF-02-162-1]
  TNF (Median): 0.008
  Activity class: C (low activity—class C: TNF %≤1%)
  TNF % (Median): 0.42%

## CCC(C(=O)Nc1cc(-c2cn3cc(C)cnc3n2)ccc1Cl)c1ccccc1 (stereo not drawn) [FRF-02-174-1]
  TNF (Median): 0.924
  Activity class: A (high activity—class A: TNF %>15%)
  TNF % (Median): 35.71%

## CCC(C(=O)Nc1cc(-c2cn3cc(C)cnc3n2)ccc1C)c1ccccc1 (stereo not drawn) [FRF-02-144-1, N-(2-Methyl-5-(6-methylimidazo[1,2-a]pyrimidin-2-yl)phenyl)-2-phenylbutanamide]
  TNF (Median): 3.144
  Activity class: A (high activity—class A: TNF %>15%)
  TNF % (Median): 55.24%

## Cc1ccc(-c2cn3cccnc3n2)cc1NC(=O)c1ccccc1C [Example 37.17]
  TNF (Median): 0.865
  Activity class: A (high activity—class A: TNF %>15%)
  TNF % (Median): 20.64%
